Results reported in patent US20070060615A1, “Method of Modulating Apoptosis Through Modulation of E2F1” (University of South Florida, priority 2003, published 2007).

Legend:
Mcl-1 [1] = assay: Western blot of Mcl-1 in H1299 cells; format: cell-based, human
Method: (§1) The H1299 non-small cell lung cancer line are grown in DMEM supplemented with 2 mM L-glutamine (Life Technologies, Inc.), 5% fetal bovine serum (Hyclone), and 1% penicillin/streptomycin (Life Technologies, Inc.). NIH3T3 cells constitutively expressing human Mcl-1 were created by transfecting cells with pcDNA-3-Mcl-1 and selecting for transformants in the presence of 400 μg/ml G418. Mouse embryo fibroblasts from E2F1-null animals were grown in DMEM with 15% fetal bovine serum and 1% penicillin/streptomycin. […] The drug was diluted directly into the medium to indicated concentrations followed by incubation at 37° C. Untreated cells and cells treated with DMSO alone behaved identically. Cell lysates were normalized for total protein content (50 μg) and subjected to SDS-PAGE as described previously. Primary antibodies used in these studies consisted of E2F1 (SantaCruz Biotechnology; SC-251), Mcl-1 (Santa Cruz; SC-819), Rb (PharMingen; 14031A), Flag (Sigma; F-3615) and β-actin (Sigma; A5441). Detection of proteins was accomplished using horseradish-peroxidase-conjugated secondary antibodies and enhanced chemiluminescence (ECL) purchased through Amersham. Northern blots were performed as described previously.

[2] = test system: H1299 cells lacking E2F1 protein; assay: Apoptosis by Apo-BrdUrd in E2F1 knockdown H1299 cells; format: cell-based, human; settings: 200 nM, 48 and 72 h, FIG. 6B
Method: (§2) To generate E2F1 knockdown cell lines H1299 cells were transfected by the calcium phosphate method either with empty BS/U6 RNAi vector or with BS/U6-E2F1 RNAi vector together with pcDNA-3, which encodes a neomycin-selectable marker. Forty-eight hours after transfection, cells were split and cultured in medium containing 400 μg/ml G418. Colonies that emerged from G418 selection were propagated and screened for E2F1 expression by Western blot. Several lines were isolated that had reduced E2F1 expression; the most efficient knockdown cell line, H1299-E2F1RNAi-16, was further characterized. A matching H1299-pBS/U6 cell line was generated in the same way.
(§3) Apoptosis was assayed using PharMingen “APO-BrdU” kit without modification. After treatment with flavopiridol, cells were trypsinized and resuspended in PBS. Cells were counted and 1-2×10^6 cells were fixed in 1% paraformaldehyde in PBS on ice, pelleted, washed twice in PBS, and fixed with ice-cold 70% ethanol overnight. The next day, cells were pelleted, resuspended, and washed with wash buffer. Pelleted cells were resuspended with reaction buffer, TdT enzyme, and bromo-dUTP for 1 hour at 37° C. […] One×10^4 cells per experimental condition were analyzed for fluorescence on a Becton-Dickinson FACScan using Cell Quest software.

Rb = Rb Western blot (Rb phosphorylation) in H1299 cells; format: cell-based, human; settings: H1299, 200 nM, time course FIG. 3A
Method: (§4) Cell lysates were normalized for total protein content (50 μg) and subjected to SDS-PAGE as described previously. Primary antibodies used in these studies consisted of E2F1 (SantaCruz Biotechnology; SC-251), Mcl-1 (Santa Cruz; SC-819), Rb (PharMingen; 14031A), Flag (Sigma; F-3615) and β-actin (Sigma; A5441). Detection of proteins was accomplished using horseradish-peroxidase-conjugated secondary antibodies and enhanced chemiluminescence (ECL) purchased through Amersham. Northern blots were performed as described previously.

[3] = test system: H1299-Mcl-1-11 and H1299-Mcl-1-13 cells; assay: Apoptosis by Apo-BrdUrd in H1299 cells stably expressing human Mcl-1; format: cell-based; settings: 200 nM, 48, 72 and 96 hours, FIG. 4B
Method: H1299 cells lines, constitutively expressing human Mcl-1 under control of the CMV promoter, were obtained by transfecting cells with pcDNA3 or pcDNA3-Mcl-1 and selecting for transformants by growth in 400 μg/ml G418. G418-resistant lines were screened for expression of human Mcl-1. Two Mcl-1-positive cell lines emerged and were characterized. A matching G418-resistant H1299-pcDNA3 cell line was generated in the same way. Apoptosis was assayed using PharMingen “APO-BrdU” kit without modification. After treatment with flavopiridol, cells were trypsinized and resuspended in PBS. Cells were counted and 1-2×10^6 cells were fixed in 1% paraformaldehyde in PBS on ice, pelleted, washed twice in PBS, and fixed with ice-cold 70% ethanol overnight. The next day, cells were pelleted, resuspended, and washed with wash buffer. Pelleted cells were resuspended with reaction buffer, TdT enzyme, and bromo-dUTP for 1 hour at 37° C. Cells were subsequently rinsed with 1.0 ml of PBS and resuspended with fluorescein-labeled anti-BrdUrd in the dark for 30 min at room temperature. Propidium iodide and RNase were added, and the cells were incubated for 30 min. One×10^4 cells per experimental condition were analyzed for fluorescence on a Becton-Dickinson FACScan using Cell Quest software.

Bok = assay: Western blot of Bok in H1299 cells; format: cell-based, human; settings: H1299, 200 nM
[4] = test system: H1299 lung carcinoma cells; assay: Apoptosis by Apo-BrdUrd incorporation in H1299 cells; format: cell-based, human
Method: (§5) The H1299 non-small cell lung cancer line are grown in DMEM supplemented with 2 mM L-glutamine (Life Technologies, Inc.), 5% fetal bovine serum (Hyclone), and 1% penicillin/streptomycin (Life Technologies, Inc.). NIH3T3 cells constitutively expressing human Mcl-1 were created by transfecting cells with pcDNA-3-Mcl-1 and selecting for transformants in the presence of 400 μg/ml G418. Mouse embryo fibroblasts from E2F1-null animals were grown in DMEM with 15% fetal bovine serum and 1% penicillin/streptomycin. […] The drug was diluted directly into the medium to indicated concentrations followed by incubation at 37° C. Untreated cells and cells treated with DMSO alone behaved identically.
(§6) Apoptosis was assayed using PharMingen “APO-BrdU” kit without modification. After treatment with flavopiridol, cells were trypsinized and resuspended in PBS. Cells were counted and 1-2×10^6 cells were fixed in 1% paraformaldehyde in PBS on ice, pelleted, washed twice in PBS, and fixed with ice-cold 70% ethanol overnight. The next day, cells were pelleted, resuspended, and washed with wash buffer. Pelleted cells were resuspended with reaction buffer, TdT enzyme, and bromo-dUTP for 1 hour at 37° C. Cells were subsequently rinsed with 1.0 ml of PBS and resuspended with fluorescein-labeled anti-BrdUrd in the dark for 30 min at room temperature. Propidium iodide and RNase were added, and the cells were incubated for 30 min. One×10^4 cells per experimental condition were analyzed for fluorescence on a Becton-Dickinson FACScan using Cell Quest software.

[5] = test system: NIH3T3 cells stably expressing human Mcl-1; assay: Apoptosis by Apo-BrdUrd in NIH3T3 cells stably expressing Mcl-1; format: cell-based, murine; settings: 200 nM, 72 hours, FIG. 5C
Method: as §5, §3

wild-type NIH3T3 cells = assay: Apoptosis by Apo-BrdUrd in wild-type NIH3T3 cells; format: cell-based, murine; settings: 200 nM, 48 and 72 hours, FIG. 5C
Method: as §6

E2F1 = assay: Western blot of E2F1 in H1299 cells; format: cell-based, human
Method: as §1

Mcl-1 [6] = assay: Western blot of Mcl-1 in E2F1 knockdown H1299 cells; format: cell-based, human; settings: E2F1 knockdown H1299, 8 hours, FIG. 6A
Method: as §2, §4

[7] = test system: E2F1 null mouse embryo fibroblasts; assay: Apoptosis by Apo-BrdUrd in E2F1 null mouse embryo fibroblasts; format: cell-based; settings: 200 nM, 72 hours, FIG. 6C
Method: as §5, §3

Mcl-1 mRNA = assay: Northern blot of endogenous Mcl-1 mRNA in wild-type NIH3T3 cells; format: cell-based, murine; settings: wild-type 3T3 cells, total RNA, FIG. 5B
Method: as §4

Bcl-2 = assay: Western blot of Bcl-2 in H1299 cells; format: cell-based, human; settings: H1299, 200 nM
human Mcl-1 = assay: Western blot of Mcl-1 in NIH3T3 cells stably expressing human Mcl-1; format: cell-based, murine; settings: 200 nM, up to 72 hours, FIG. 5A
Method: as §1

[8] = H1299, 200 nM, 12 hours, extended time course FIG. 3A
[9] = H1299, increasing doses, 48 hours, FIG. 1A

## CN1CC[C@H](c2c(O)cc(O)c3c(=O)cc(-c4ccccc4Cl)oc23)[C@H](O)C1 [flavopiridol]
Mcl-1 [1]; H1299, 200 nM and higher, 48 hours, FIG. 1A
  Mcl-1 protein levels at 200 nM and higher doses: undetectable
Mcl-1 [1]; [8]
  Mcl-1 levels after 12 hours: undetectable
Mcl-1 [1]; H1299, 200 nM, 36 hours, FIG. 3A
  Mcl-1 levels by 36 hours: Low levels of Mcl-1 were apparent
Mcl-1 [1]; H1299, 200 nM, FIG. 2A
  Time after which Mcl-1 levels began to fall: 3 h
  Time after which Mcl-1 levels were maximally reduced: 12 h
Mcl-1 [1]; [9]
  Mcl-1 protein levels, dose response: significantly reduced starting at the 100-nM dose
[2]
  Apoptosis in H1299 cells lacking E2F1 compared with empty RNAi vector cells: less sensitive to flavopiridol-induced cell death
Rb
  Rb phosphorylation: no changes in Rb phosphorylation
[3]
  Apoptosis in stably transfected Mcl-1 clones compared with control cells: resistant to apoptosis induced by flavopiridol
Bok
  Bok levels: No changes
[4]; H1299, 200 nM, 48 and 72 hours, FIG. 3B
  Apoptosis after 48 and 72 hours: larger degrees of apoptosis
[4]; H1299, 200 nM, 24 hours, FIG. 3B
  Apoptosis after 24 hours: Minimal levels of apoptosis
[4]; H1299, 200 nM, 36 hours, FIG. 3B
  Apoptosis at 36 hours: apoptosis was evident
[4]; H1299, 200 nM, <18 hours, FIG. 2B
  Apoptosis at times <18 hours: minimal effect on apoptosis
[4]; H1299, 48 hours of treatment, FIG. 1B
  Apoptosis (Apo-BrdUrd incorporation), dose response: minimal elevations in apoptosis, as measured by Apo-BrdUrd incorporation, are seen until a dose of 200 nM was reached
[5]
  Apoptosis in NIH3T3 stably expressing Mcl-1: minimal increases in apoptosis
wild-type NIH3T3 cells
  Apoptosis in wild-type NIH3T3 (pcDNA3 alone): undergoes apoptosis starting after 48 hours but is more pronounced after 72 hours of treatment
E2F1; [8]
  E2F1 levels after 12 hours: E2F1 levels had risen
E2F1; H1299, 200 nM, 72 hours, FIG. 3A
  E2F1 levels after 72 hours: E2F1 levels fell
E2F1; H1299, 200 nM, FIG. 2A
  Time after which E2F1 levels reached a plateau: 9 h
  Time after which increases in E2F1 protein are apparent: 3 h
E2F1; [9]
  E2F1 protein levels, dose response: markedly elevated starting at the 100-nM dose
Mcl-1 [6]
  Mcl-1 protein levels in H1299 cells lacking E2F1: decreased in a manner identical to that of the control cells
[7]
  Apoptosis in mouse embryo fibroblast lines lacking E2F1 compared with wild-type littermates: less sensitive to flavopiridol-induced cell death
Mcl-1 mRNA
  Time within which endogenous Mcl-1 levels are reduced: ≤ 6 h
Bcl-2
  Bcl-2 levels: No changes
Human Mcl-1
  Human Mcl-1 protein levels in stably transfected NIH3T3 cells: no changes are seen in the levels of Mcl-1
